Measurements published in PMC5849406 (Pharmacological research, 2017).
Values joined by “and” are separate entries in the source; they are usually repeats but may differ in a detail not shown here. Identical values can stand only once. Like-named read-outs stand apart in the source and are kept apart here. Marks after values point to notes of the source that are not given here.

Assays:
hCB1Rs [1] = experiment: Biased hCB1R signaling: ΔΔlog; parameters: species or system human; details: CHO-β2-hCB1, reference CP-55,940; for GTPγS / β-Arrestin 2 (Operational) Bias Factor: 10^ΔΔlog(τ/KA); for AC / β-Arrestin 2 (Competitive) ΔΔLog(τ/KA) / AC / β-Arrestin 2 (Operational) ΔΔLog(τ/KA) / GTPγS / β-Arrestin 2 (Competitive) ΔΔLog(τ/KA) / GTPγS / β-Arrestin 2 (Operational) ΔΔLog(τ/KA): 95% confidence interval in parentheses
hCB1Rs [2] = molecular target: T1, hCB1Rs (Homo sapiens, UniProt P21554); format: binding; details: 0.2 nM [^3H]-CP55,940; for ^3H-CP-55,940 Binding pKi: mean ± S.E.M.; for Ki: read-out: ^3H-CP-55,940 Binding Ki
T1 sequence (P21554 whole entry): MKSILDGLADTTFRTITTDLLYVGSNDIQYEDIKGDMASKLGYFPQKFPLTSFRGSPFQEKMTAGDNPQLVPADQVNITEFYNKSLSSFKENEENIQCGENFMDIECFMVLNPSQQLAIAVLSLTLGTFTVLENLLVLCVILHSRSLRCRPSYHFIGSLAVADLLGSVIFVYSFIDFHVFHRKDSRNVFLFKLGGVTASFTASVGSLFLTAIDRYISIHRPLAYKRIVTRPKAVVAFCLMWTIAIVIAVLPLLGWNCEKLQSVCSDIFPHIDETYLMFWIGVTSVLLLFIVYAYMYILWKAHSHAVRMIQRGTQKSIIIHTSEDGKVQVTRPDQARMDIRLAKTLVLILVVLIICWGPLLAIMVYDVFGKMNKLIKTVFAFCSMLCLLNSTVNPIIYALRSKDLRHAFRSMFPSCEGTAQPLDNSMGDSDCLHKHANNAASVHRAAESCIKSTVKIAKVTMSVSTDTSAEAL

hCB1Rs [3] = molecular target: T1, hCB1Rs; experiment: [^35S]GTPγS binding; format: biochemical; details: for ^35S-GTPγS Binding Assay ΔLog(τ/KA): CHO-β2-hCB1, normalized to reference CP-55,940, 95% CI printed in the cell; for ^35S-GTPγS Binding Assay EMAX: fraction of the effect produced by the reference agonist CP-55,940; for EC50: read-out: ^35S-GTPγS Binding Assay EC50
hCB1Rs [4] = molecular target: T1, hCB1Rs; experiment: Forskolin-stimulated intracellular cAMP levels; format: cell-based; details: for cAMP Assay Log(τ/KA): Black-Leff operational model; for cAMP Assay pIC50 / cAMP Assay IMAX / IC50: intact CHO-β2-hCB1 cells; for cAMP Assay pIC50 / IC50: 10 µM forskolin; for cAMP Assay IMAX: fraction of the effect produced by the reference agonist CP-55,940; for IC50: read-out: cAMP Assay IC50
hCB1Rs [5] = molecular target: T1, hCB1Rs; format: cell-based; details: for β-Arrestin 2 Assay (Operational) ΔLog(τ/KA): normalized to reference CP-55,940; for β-Arrestin 2 Assay (Operational) Log(τ/KA): operational model; for β-Arrestin 2 Assay EMAX / β-Arrestin 2 Assay pEC50 / EC50: CHO-β2-hCB1 cells; for β-Arrestin 2 Assay EMAX: 90 min, fraction of the effect produced by the reference agonist CP-55,940; for β-Arrestin 2 Assay pEC50 / EC50: 90 min incubation; for EC50: read-out: β-Arrestin 2 Assay EC50
hCB1Rs [6] = molecular target: T1, hCB1Rs; experiment: CB1 receptor down-regulation after chronic drug exposure; format: cell-based
hCB1Rs [7] = molecular target: T1, hCB1Rs; experiment: CB1 receptor desensitization after chronic drug exposure; format: cell-based; details: CHO-hCB1-Rx cells; at 1 hr; CP-55,940 10^−7 M or PNR-4-20 10^−5 M
NIH-Swiss mice = experiment: In vivo cannabinoid tetrad; parameters: species or system mouse
hCB1 and hCB2Rs = details: ref [29]; cited from earlier work
[8] = CHO-β2-hCB1, 95% CI printed in the cell

SMILES | AC / β-Arrestin 2 (Competitive) Bias Factor (hCB1Rs [1]) | AC / β-Arrestin 2 (Operational) Bias Factor (hCB1Rs [1]) | GTPγS / β-Arrestin 2 (Competitive) Bias Factor (hCB1Rs [1]) | GTPγS / β-Arrestin 2 (Operational) Bias Factor (hCB1Rs [1]) | AC / β-Arrestin 2 (Competitive) ΔΔLog(τ/KA) (hCB1Rs [1]) | AC / β-Arrestin 2 (Operational) ΔΔLog(τ/KA) (hCB1Rs [1]) | GTPγS / β-Arrestin 2 (Competitive) ΔΔLog(τ/KA) (hCB1Rs [1]) | GTPγS / β-Arrestin 2 (Operational) ΔΔLog(τ/KA) (hCB1Rs [1]) | ^3H-CP-55,940 Binding pKi (hCB1Rs [2]; CHO-β2-hCB1 membranes) | ^35S-GTPγS Binding Assay ΔLog(τ/KA) (hCB1Rs [3]) | ^35S-GTPγS Binding Assay pEC50 (hCB1Rs [3]; CHO-β2-hCB1 membranes) | ^35S-GTPγS Binding Assay EMAX (hCB1Rs [3]; CHO-β2-hCB1 membranes) | EC50 (hCB1Rs [3]; CHO-β2-hCB1 membranes) | cAMP Assay Log(τ/KA) (hCB1Rs [4]; [8]) | cAMP Assay pIC50 (hCB1Rs [4]) | cAMP Assay IMAX (hCB1Rs [4]) | IC50 (hCB1Rs [4]) | β-Arrestin 2 Assay (Operational) ΔLog(τ/KA) (hCB1Rs [5]; [8]) | β-Arrestin 2 Assay (Operational) Log(τ/KA) (hCB1Rs [5]; [8]) | β-Arrestin 2 Assay EMAX (hCB1Rs [5]) | further results
CCCCCCC(C)(C)c1ccc([C@@H]2C[C@H](O)CC[C@H]2CCCO)c(O)c1 [CP-55,940] | 1.00 | 1.00 | 1.00 | 1.0 | 0.0 | 0.0 | 0.0 | 0.0 |  |  |  |  |  |  |  |  |  |  |  |  | 
CCCCCn1cc(C(=O)c2cccc3ccccc23)c2ccccc21 [JWH-018, reference compound] |  | 0.21 |  | 2.0 |  |  |  | 0.30 (−0.20 to 0.81) | 9.12±0.06^a | −0.12^a (−0.69 to −0.45) | 9.25±0.23^a | 1.02 ± 0.10 fractional units and 1.02±0.10^a fractional units | 0.749 nM | 8.56^b (8.17 to 8.94) | 8.82±0.15^b | 0.90±0.05^a | 1.73 nM | 0.18^a (−0.15 to 0.51) | 7.27^a (7.20 to 7.34) | 1.16 ± 0.16 fractional units and 1.16±0.16^a fractional units | β-Arrestin 2 Assay pEC50 (hCB1Rs [5]): 7.17±0.08^a; EC50 (hCB1Rs [5]): 78.1 nM; CB1R bias between G protein-dependent and β-arrestin 2 signaling (in words) (hCB1Rs [1]): little CB1R bias
O=C1/C(=C/c2cn(Cc3ccc(F)cc3)c3ccccc23)N2CCC1CC2 [PNR-4-20] | 13.5 | 29.5 | 2.5 | 5.4 | 1.13 (0.7 to 1.56) | 1.47 (0.93 to 2.00) | 0.40 (0.09 to 0.89) | 0.73 (0.09 to 1.36) | 6.83±0.03^b | −1.99^b (−2.54 to −1.43) | 7.29±0.09^b | 1.02 ± 0.10 fractional units | 53.9 nM | 6.45^c (6.02 to 6.88) | 6.97±0.34^a,c | 1.26±0.10^a | 180 nM | −2.72^b (−3.33 to −2.10) | 4.37^b (3.82 to 4.93) | 0.24 ± 0.02 fractional units | ^3H-CP-55,940 Binding pKi (hCB1Rs [2]; CHO-hCB1-Rx membranes): 7.11±0.13; Ki (hCB1Rs [2]; CHO-hCB1-Rx membranes): 85.1 nM; Ki (hCB1Rs [2]; CHO-β2-hCB1 membranes): 159 nM; ^35S-GTPγS Binding Assay pEC50 (hCB1Rs [3]; CHO-hCB1-Rx membranes): 6.89±0.09; ^35S-GTPγS Binding Assay EMAX (hCB1Rs [3]; CHO-β2-hCB1 membranes, listed as PNR-420): 1.02±0.10^a fractional units; EC50 (hCB1Rs [3]; CHO-hCB1-Rx membranes): 130 nM; cAMP Assay ΔLog(τ/KA) (hCB1Rs [4]; CHO-β2-hCB1, normalized to reference CP-55,940, 95% CI printed in the cell): −1.25^c (−1.58 to −0.93); β-Arrestin 2 Assay (Competitive) Log(τ/KA) (hCB1Rs [5]; CHO-β2-hCB1, competitive operational model, 95% CI printed in the cell): 4.84^b (4.53 to 5.16); β-Arrestin 2 Assay EMAX (hCB1Rs [5]; listed as PNR-420): 0.24±0.02^b fractional units; β-Arrestin 2 Assay pEC50 (hCB1Rs [5]): 5.28±0.06^b; effect on β-arrestin 2 recruitment produced by CP-55,940 (co-incubation) (hCB1Rs [5]; CP-55,940 10^−7 M, test ligand 10^−7 to 10^−4 M): decreased; EC50 (hCB1Rs [5]): 5410 nM; effect of chronic exposure on KD of [^3H]-CP-55,940 (hCB1Rs [6]; 10 hr exposure, data not shown): does not alter the KD of [^3H]-CP-55,940; reduction in binding (hCB1R density) (hCB1Rs [6]; CHO-hCB1-Rx cells, 10 hrs exposure, PNR-4-20 10^−5 M): 42.2 ± 1.7%; maximal reduction of hCB1R density (hCB1Rs [6]; CHO-hCB1-Rx cells, PNR-4-20 10^−5 M, 0 to 10 hrs): 76.4 ± 3.6%; maximal reduction of CB1R density (hCB1Rs [6]; CHO-β2-hCB1 cells, at 2 hrs, CP-55,940 10^−7 M or PNR-4-20 10^−5 M): 39.7 ± 4.9%; maximal reduction of G protein activation by CP-55,940 (10^−7 M) (hCB1Rs [7]): 46.0 ± 5.8%; activity in the cannabinoid tetrad (NIH-Swiss mice; NIH-Swiss mice, 10, 30, or 100 mg/kg i.p., assessed 35 min after injection): exhibits activity consistent with that of a CB1R agonist in all four measures of the cannabinoid tetrad; time of peak hypothermic effects after injection (NIH-Swiss mice; mice, radiotelemetry pilot studies, 5-min intervals, data not shown): 35 min; selectivity of binding between hCB1 and hCB2Rs (hCB1 and hCB2Rs): bind relatively non-selectively to hCB1 and hCB2Rs
Cc1c(C(=O)NN2CCCCC2)nn(-c2ccc(Cl)cc2Cl)c1-c1ccc(Cl)cc1 [rimonabant, reference compound] |  |  |  |  |  |  |  |  |  |  |  |  |  |  |  |  |  |  |  |  | reversal of PNR-4-20 tetrad effects by co-administered antagonist (NIH-Swiss mice; rimonabant 10 mg/kg with 100 mg/kg PNR-4-20, i.p., mice): significant reversal of the effects of PNR-4-20 on rectal temperature and catalepsy
